Experimental data taken from patent publication US20230132823A1, “BI-FUNCTIONAL COMPOUNDS AND METHODS FOR TARGETED UBIQUITINATION OF ANDROGEN RECEPTOR” (MONTELINO THERAPEUTICS, INC., priority 2020, published 2023).
Like-named read-outs stand apart in the source and are kept apart here. Where a SMILES comes first, the peptide text is derived from it. [ ]: non-standard residue; d: D form. The star is where a group is joined. ξ: configuration not given here. X1 = O=C(COc1c(-c2csc(N3CCOCC3)n2)ccc(F)c1F)NCCCCCCN*; Dip = N[C@H](C(=O)O)C(c1ccccc1)c1ccccc1; Chg = N[C@H](C(=O)O)C1CCCCC1; NMeA = CN[C@@H](C)C(=O)O; ξP = O=C(O)C1CCCN1

Tests used:
[1] = Body weight of tumor-bearing mice during treatment; format: in vivo
Description: (§1) The in vivo effects of the Compound of Example 16 are assessed in mice using enzalutamide-resistant CaP xenografts. First, 22Rv1-Enz^R tumor xenografts are established in nu/nu mice. Upon CaP xenograft formation (average diameter of 3 mm), mice are randomized into controls or treatment. Control mice are treated with 100 μl vehicle containing 10 mg/ml enzalutamide (n=5). The treatment group is injected with 100 μl vehicle containing 2.5 mg/ml Compound of Example 16 and 10 mg/ml enzalutamide daily directly into tumors (n=5) and tumor volumes were followed. […] Tumors are harvested and analyzed at the end of the study period.
Enzalutamide-resistant CaP tumor xenografts are established in twelve mice and three each are assigned to the following four groups: control IP (vehicle), control oral (vehicle), 8.3 mg/kg IP, and 8.3 mg/kg oral. Because these cells are resistant to enzalutamide, all animals are administered enzalutamide.

AR-FL = target: T1, AR-FL (Homo sapiens, UniProt P10275, DUP590-628/H875Y); assay: Immunoblot analysis of AR-FL protein in CaP cells (Experimental Example 3); format: cell-based; parameters: decreased AR-V7 and AR-FL protein expression levels in 22Rv1 cells; endogenous in cells; host or cells: 22Rv1 (also VCaP, LNCaP and SAT-resistant sublines)
T1 sequence (P10275 with tags, fused parts or gaps DUP590-628/H875Y): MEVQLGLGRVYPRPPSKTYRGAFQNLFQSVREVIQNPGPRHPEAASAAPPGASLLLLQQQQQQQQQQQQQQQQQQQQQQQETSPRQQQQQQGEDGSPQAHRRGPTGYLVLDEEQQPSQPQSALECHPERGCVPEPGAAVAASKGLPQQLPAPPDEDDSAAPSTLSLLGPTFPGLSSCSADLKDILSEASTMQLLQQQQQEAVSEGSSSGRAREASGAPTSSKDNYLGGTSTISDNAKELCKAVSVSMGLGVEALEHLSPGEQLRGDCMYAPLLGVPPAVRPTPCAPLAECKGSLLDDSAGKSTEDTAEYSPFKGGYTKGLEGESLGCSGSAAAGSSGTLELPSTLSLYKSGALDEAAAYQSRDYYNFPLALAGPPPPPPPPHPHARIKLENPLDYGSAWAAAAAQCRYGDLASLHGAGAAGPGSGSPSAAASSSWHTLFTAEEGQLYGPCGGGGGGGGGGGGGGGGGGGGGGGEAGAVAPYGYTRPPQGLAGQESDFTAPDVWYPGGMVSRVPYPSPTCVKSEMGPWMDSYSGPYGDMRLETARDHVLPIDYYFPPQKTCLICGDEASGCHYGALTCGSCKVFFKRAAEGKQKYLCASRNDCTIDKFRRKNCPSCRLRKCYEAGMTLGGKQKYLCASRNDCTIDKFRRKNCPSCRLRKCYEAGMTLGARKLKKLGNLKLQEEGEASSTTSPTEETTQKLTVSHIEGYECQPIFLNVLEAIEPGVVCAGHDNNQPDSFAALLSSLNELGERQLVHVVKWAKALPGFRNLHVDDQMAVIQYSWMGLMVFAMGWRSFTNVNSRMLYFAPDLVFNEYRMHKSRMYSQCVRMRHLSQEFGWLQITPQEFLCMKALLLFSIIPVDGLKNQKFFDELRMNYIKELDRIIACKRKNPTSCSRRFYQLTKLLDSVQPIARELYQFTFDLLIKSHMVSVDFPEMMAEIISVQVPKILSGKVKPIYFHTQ
Description: Cell Culture. Human CaP cell lines, LNCaP, 22Rv1, VCaP, PC3, and DU145 are obtained from the American Type Culture Collection (ATCC) and maintained in the standard culture media: RPMI-1640 supplemented with 10% fetal bovine serum (FBS). LNCaP, 22Rv1, and VCaP are androgen-responsive cell lines, while PC3 and DU145 are not. To establish SAT resistant CaP cell lines, LNCaP, 22Rv1, and VCaP are treated continuously with 10-50 μM abiraterone, apalutamide, darolutamide, or enzalutamide. After 3-6 months, stable cell lines are established and designated as LNCaP-Abi^R, LNCaP-Apa^R, LNCaP-Daro^R, LNCaP-Enz^R, VCaP-Abi^R, VCaP-Apa^R, VCaP-Daro^R, VCaP-Enz^R, 22Rv1-Abi^R, 22Rv1-Apa^R, 22Rv1-Daro^R and 22Rv1-Enz^R. Unless otherwise specified, the standard culture media for these SAT-resistant cell lines included 10 μM of their respective SAT. For the proteasome inhibitor study, the inhibitors MG132 and Epoxomicin are used. The E3 ligase inhibitors Heclin, Nutlin 3a, Thalidomide, and VH298 are used. Cell lines obtained from ATCC are confirmed by checking their morphology using optical microscopy, establishing baselines for cell proliferation, verifying species of origin using isoenzymology, and characterizing the cell's DNA fingerprint using short tandem repeat (STR) profiling. Mycoplasma contamination is also assessed using a PCR based detection system.
Immunoblot Analysis. CaP cells are collected and lysed with the lysis buffer (20 mM Tris-HCl (pH 7.5), 150 mM NaCl, 1 mM Na2EDTA, 1 mM EGTA, 1% Triton, 2.5 mM sodium pyrophosphate, 1 mM beta-glycerophosphate, 1 mM Na3VO4, and 1 μg/ml leupeptin) containing 1 mM phenylmethylsulfonyl fluoride (PMSF). Cell lysates are then centrifuged and protein in the supernatant is quantified. After separating 25-50 μg of protein using SDS-PAGE, samples are incubated with AR-V7, GR, PR, ERα, AR-FL, ubiquitin, or β-actin antibodies. For AR-V7, AR-FL, PR, GR, and ERα immunoblots, primary antibody is diluted 1:1000 in 5% skim milk. For the β-actin immunoblot, 1:10000 diluted primary antibody is used. All membranes are incubated overnight at 4° C. Following the incubation with appropriate secondary antibody, immunoblots are analyzed using SuperSignal West Femto Maximum Sensitivity Substrate (ThermoFisher).

[2] = system: 22Rv1-Enz^R tumor xenografts; assay: 22Rv1-Enz^R tumor xenograft in castrated nu/nu mice; format: in vivo; conditions: for tumor mass at 7 weeks: control approx. 1500 mm^3
Description: In Vivo Study. To explore the therapeutic potential of Test Compound, 22Rv1, 22Rv1-Enz^R, VCaP, and VCaP-Enz^R are injected into nu/nu immunodeficient mice. When the resulting tumors reached an average size of 3 mm in diameter, all animals are surgically castrated via bilateral orchiectomy and divided into four groups of five mice each. For anesthesia, 3% isoflurane gas inhalation is used. Tumor size was measured using calipers and tumor volume was calculated using the formula: tumor volume=length×width^2[…].
Mice are then treated daily with Test Compound with or without enzalutamide via the indicated route (intratumoral, intraperitoneal, or oral) for five to six weeks. At the end of the study, all animals are sacrificed and tumors are harvested and analyzed. Statistical significance is calculated using the Student's t-test for paired comparisons of experimental groups and, where appropriate, by Wilcoxon rank sum test, and by 2-way ANOVA. In vitro experiments are repeated a minimum of three times.
as §1

DC50 (AR-FL; 22Rv1, 24 hours, immunoblot, read-out: DC50, concentration at which 50% of AR-FL degraded in 24 hours) [µM] | concentration from which AR-FL protein expression is decreased (immunoblot) (AR-FL; 22Rv1 cells, 24 hours, 0, 0.01, 0.1, 1 and 10 μM tested) [µM] | AR-FL protein expression level in parental and SAT-resistant 22Rv1, VCaP and LNCaP cells (AR-FL; immunoblot) | DC50 (AR-FL; 24 hours, immunoblot, read-out: DC50, concentration at which 50% of AR-FL is degraded in 24 hours) [µM] | SMILES | change in weight following treatment ([1]; 8.3 mg/kg systemic dosing, four weeks) | weight of the mice during treatment ([1]; intratumoral, 22Rv1-Enz^R xenograft, 5 weeks) | tumor volume at the end of 5 weeks ([2]; intratumoral daily, 100 μl of 2.5 mg/ml compound plus 10 mg/ml enzalutamide, control 800 mm^3) | changes in animal body mass ([1]; 22Rv1-Enz^R tumors, 8.3 mg/kg and 0.83 mg/kg, 7 weeks) | tumor mass at 7 weeks ([2]; 0.83 mg/kg) [mm^3] | tumor mass at 7 weeks ([2]; 8.3 mg/kg) [mm^3]
2 | 1 | decreases the protein expression levels |  | Cc1ncsc1-c1ccc([C@H](C)NC(=O)[C@@H]2C[C@@H](O)CN2C(=O)[C@@H](NC(=O)CCCCNC(=O)COc2c(-c3csc(N4CCOCC4)n3)ccc(F)c2F)C(C)(C)C)cc1 [Example 16, (2S,4R)-1-((S)-2-(5-(2-(2,3-difluoro-6-(2-morpholinothiazol-4-yl)phenoxy)acetamido)pentanamido)-3,3-dimethylbutanoyl)-4-hydroxy-N-((S)-1-(4-(4-methylthiazol-5-yl)phenyl)ethyl)pyrrolidine-2-carboxamide] | no significant change in weight | did not significantly change | approximately 500 mm^3 |  |  | 
 |  |  | < 0.5 | CN[C@@H](C)C(=O)N[C@H](C(=O)N1CCCC1C(=O)N[C@H](C(=O)NCCCCCCNC(=O)COc1c(-c2csc(N3CCOCC3)n2)ccc(F)c1F)C(c1ccccc1)c1ccccc1)C1CCCCC1 (stereo partly drawn) [Example 26, (S)-1-((S)-2-cyclohexyl-2-((S)-2-(methylamino)propanamido)acctyl)-N-((S)-1-((6-(2-(2,3-difluoro-6-(2-morpholinothiazol-4-yl)phenoxy)acetamido)hexyl)amino)-1-oxo-3,3-diphenylpropan-2-yl)pyrrolidine-2-carboxamide] (H-[NMeA][Chg][ξP][Dip]-X1) |  |  |  | No significant changes | < 600 | < 600
